Reference: patent publication US7998940B2, “Aptamers to von Willebrand factor and their use as thrombotic disease therapeutics” (Archemix Corp., priority 2004, dated 2011)
Oligonucleotides are written 5' to 3', each unit as a sugar letter and its base; * is a phosphorothioate linkage, no mark a phosphodiester; rarer units and linkages stand in square brackets, end groups in braces. Plain capitals give the bases only. [invdT] = inverted (3'-3') thymidine; d = 2'-deoxy (DNA); m = 2'-O-methyl

Tested on: full length human vWF (SEQ ID NO 7)
Assay: dot blot KD determination and extent of binding, full length human vWF;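 also: dot blot binding of aptamers to full length human vWF across a protein titration, incubated 30 minutes at room temperature in 1x DPBS with BSA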
Details: Phase 1 modification; for % binding @ 100 nM vWF: extent of aptamer binding at 100 nM full length human vWF; for Kd: full length human vWF, dot blot, 8 point protein titration, read-out: KD
Procedure: Based on this initial screen, KDs were determined for 3 of the vWF dependent binding sequences using the dot blot assay. […] A 12 point protein titration was used in the dot blot assay (300 nM, 100 nM, 30 nM, 10 nM, 3 nM, 1 nM, 300 pM, 100 pM, 30 pM, 10 pM, 3 pM, 0 pM) in 1×DPBS plus 0.1 mg/mL BSA at room temperature for 30 minutes.
An 8 point protein titration was used in the dot blot binding assay (100n M, 30 nM, 10 nM, 3 nM, 1 nM, 300 pM, 100 pM, 0 pM)) in 1× Dulbecco's PBS containing 0.1 BSA (final volume of 50 uL) for 30 minutes at room temperature.

With “ARC1206: ARC1172 with one residue replaced by 2'-O methyl residue (DNA dGdGdCdGdTdGdCdAdGdTdGdCmCdTdTdCdGdGdCdCdGdTdGdCdGdGdTdGdCdCdTdCdCdGdTdCdAdCdGdCdC[invdT]; aptamer)” as the substance, how does the “% binding @ 100 nM vWF” value read?
Its value is 50%.

What about the Kd of the same substance?
The Kd was 2 nM.

Which “% binding @ 100 nM vWF” value does the source give for “ARC1207: ARC1172 with one residue replaced by 2'-O methyl residue (DNA dGdGdCdGdTdGdCdAdGdTdGdCdCmUdTdCdGdGdCdCdGdTdGdCdGdGdTdGdCdCdTdCdCdGdTdCdAdCdGdCdC[invdT]; aptamer)” here?
The value was 54%.

And the Kd?
The Kd was 2 nM.

Which results are given for “ARC1208: ARC1172 with one residue replaced by 2'-O methyl residue (DNA dGdGdCdGdTdGdCdAdGdTdGdCdCdTmUdCdGdGdCdCdGdTdGdCdGdGdTdGdCdCdTdCdCdGdTdCdAdCdGdCdC[invdT]; aptamer)”?
% binding @ 100 nM vWF: 45%; Kd: 2 nM

“ARC1209: ARC1172 with one residue replaced by 2'-O methyl residue (DNA dGdGdCdGdTdGdCdAdGdTdGdCdCdTdTmCdGdGdCdCdGdTdGdCdGdGdTdGdCdCdTdCdCdGdTdCdAdCdGdCdC[invdT]; aptamer)” was tested. Which “% binding @ 100 nM vWF” value did it give?
The value was 44%.

What about the Kd of the same substance?
The Kd was 2 nM.

Which “% binding @ 100 nM vWF” value does the source give for “ARC1210: ARC1172 with one residue replaced by 2'-O methyl residue (DNA dGdGdCdGdTdGdCdAdGdTdGdCdCdTdTdCmGdGdCdCdGdTdGdCdGdGdTdGdCdCdTdCdCdGdTdCdAdCdGdCdC[invdT]; aptamer)” here?
The value was 49%.

And the Kd?
The Kd was 2 nM.

Which results are given for “ARC1211: ARC1172 with one residue replaced by 2'-O methyl residue (DNA dGdGdCdGdTdGdCdAdGdTdGdCdCdTdTdCdGmGdCdCdGdTdGdCdGdGdTdGdCdCdTdCdCdGdTdCdAdCdGdCdC[invdT]; aptamer)”?
% binding @ 100 nM vWF: 47%; Kd: 2 nM

What does the source list for “ARC1212: ARC1172 with one residue replaced by 2'-O methyl residue (DNA dGdGdCdGdTdGdCdAdGdTdGdCdCdTdTdCdGdGmCdCdGdTdGdCdGdGdTdGdCdCdTdCdCdGdTdCdAdCdGdCdC[invdT]; aptamer)”?
% binding @ 100 nM vWF: 49%; Kd: 2 nM

For “ARC1213: ARC1172 with one residue replaced by 2'-O methyl residue (DNA dGdGdCdGdTdGdCdAdGdTdGdCdCdTdTdCdGdGdCmCdGdTdGdCdGdGdTdGdCdCdTdCdCdGdTdCdAdCdGdCdC[invdT]; aptamer)”, which “% binding @ 100 nM vWF” value is on record?
Its value is 43%.

And the Kd?
The Kd was 6 nM.

For “ARC1214: ARC1172 with one residue replaced by 2'-O methyl residue (DNA dGdGdCdGdTdGdCdAdGdTdGdCdCdTdTdCdGdGdCdCmGdTdGdCdGdGdTdGdCdCdTdCdCdGdTdCdAdCdGdCdC[invdT]; aptamer)”, which “% binding @ 100 nM vWF” value is on record?
The value was 39%.

And the Kd?
The Kd was 3 nM.

“ARC1215: ARC1172 with one residue replaced by 2'-O methyl residue (DNA dGdGdCdGdTdGdCdAdGdTdGdCdCdTdTdCdGdGdCdCdGmUdGdCdGdGdTdGdCdCdTdCdCdGdTdCdAdCdGdCdC[invdT]; aptamer)” was tested. Which “% binding @ 100 nM vWF” value did it give?
The value was 2%.

And the Kd?
The Kd was 3 nM.

Which results are given for “ARC1216: ARC1172 with one residue replaced by 2'-O methyl residue (DNA dGdGdCdGdTdGdCdAdGdTdGdCdCdTdTdCdGdGdCdCdGdTmGdCdGdGdTdGdCdCdTdCdCdGdTdCdAdCdGdCdC[invdT]; aptamer)”?
% binding @ 100 nM vWF: 40%; Kd: 0.6 nM

How did the “% binding @ 100 nM vWF” value turn out when “ARC1217: ARC1172 with one residue replaced by 2'-O methyl residue (DNA dGdGdCdGdTdGdCdAdGdTdGdCdCdTdTdCdGdGdCdCdGdTdGmCdGdGdTdGdCdCdTdCdCdGdTdCdAdCdGdCdC[invdT]; aptamer)” was run?
Its value is 18%.

And the Kd?
Its Kd is 14 nM.

With “ARC1218: ARC1172 with one residue replaced by 2'-O methyl residue (DNA dGdGdCdGdTdGdCdAdGdTdGdCdCdTdTdCdGdGdCdCdGdTdGdCmGdGdTdGdCdCdTdCdCdGdTdCdAdCdGdCdC[invdT]; aptamer)” as the substance, how does the “% binding @ 100 nM vWF” value read?
The value was 2%.

What about the Kd of the same substance?
The Kd was 32 nM.

Which “% binding @ 100 nM vWF” value does the source give for “ARC1219: ARC1172 with one residue replaced by 2'-O methyl residue (DNA dGdGdCdGdTdGdCdAdGdTdGdCdCdTdTdCdGdGdCdCdGdTdGdCdGmGdTdGdCdCdTdCdCdGdTdCdAdCdGdCdC[invdT]; aptamer)” here?
The value was 33%.

And the Kd?
The Kd was 3 nM.

How did the “% binding @ 100 nM vWF” value turn out when “ARC1220: ARC1172 with one residue replaced by 2'-O methyl residue (dGdGdCdGdTdGdCdAdGdTdGdCdCdTdTdCdGdGdCdCdGdTdGdCdGdGmUdGdCdCdTdCdCdGdTdCdAdCdGdCdC[invdT]; aptamer)” was run?
The value was 17%.

What about the Kd of the same substance?
Its Kd is 11 nM.

Which “% binding @ 100 nM vWF” value does the source give for “ARC1221: ARC1172 with one residue replaced by 2'-O methyl residue (dGdGdCdGdTdGdCdAdGdTdGdCdCdTdTdCdGdGdCdCdGdTdGdCdGdGdTmGdCdCdTdCdCdGdTdCdAdCdGdCdC[invdT]; aptamer)” here?
The value was 43%.

And the Kd?
The Kd was 1 nM.

With “ARC1222: ARC1172 with one residue replaced by 2'-O methyl residue (dGdGdCdGdTdGdCdAdGdTdGdCdCdTdTdCdGdGdCdCdGdTdGdCdGdGdTdGmCdCdTdCdCdGdTdCdAdCdGdCdC[invdT]; aptamer)” as the substance, how does the “% binding @ 100 nM vWF” value read?
Its value is 40%.

And the Kd?
Its Kd is 0.9 nM.

Which “% binding @ 100 nM vWF” value does the source give for “ARC1223: ARC1172 with one residue replaced by 2'-O methyl residue (dGdGdCdGdTdGdCdAdGdTdGdCdCdTdTdCdGdGdCdCdGdTdGdCdGdGdTdGdCmCdTdCdCdGdTdCdAdCdGdCdC[invdT]; aptamer)” here?
Its value is 26%.

And the Kd?
Its Kd is 36 nM.

With “ARC1224: ARC1172 with one residue replaced by 2'-O methyl residue (dGdGdCdGdTdGdCdAdGdTdGdCdCdTdTdCdGdGdCdCdGdTdGdCdGdGdTdGdCdCmUdCdCdGdTdCdAdCdGdCdC[invdT]; aptamer)” as the substance, how does the “% binding @ 100 nM vWF” value read?
The value was 47%.

And the Kd?
The Kd was 0.5 nM.

Which results are given for “ARC1225: ARC1172 with one residue replaced by 2'-O methyl residue (dGdGdCdGdTdGdCdAdGdTdGdCdCdTdTdCdGdGdCdCdGdTdGdCdGdGdTdGdCdCdTmCdCdGdTdCdAdCdGdCdC[invdT]; aptamer)”?
% binding @ 100 nM vWF: 16%; Kd: 11 nM

How did the “% binding @ 100 nM vWF” value turn out when “ARC1226: ARC1172 with one residue replaced by 2'-O methyl residue (dGdGdCdGdTdGdCdAdGdTdGdCdCdTdTdCdGdGdCdCdGdTdGdCdGdGdTdGdCdCdTdCmCdGdTdCdAdCdGdCdC[invdT]; aptamer)” was run?
Its value is 25%.

What about the Kd of the same substance?
Its Kd is 12 nM.

Which “% binding @ 100 nM vWF” value does the source give for “ARC1227: ARC1172 with one residue replaced by 2'-O methyl residue (dGdGdCdGdTdGdCdAdGdTdGdCdCdTdTdCdGdGdCdCdGdTdGdCdGdGdTdGdCdCdTdCdCmGdTdCdAdCdGdCdC[invdT]; aptamer)” here?
Its value is 40%.

And the Kd?
Its Kd is 3 nM.

Which “% binding @ 100 nM vWF” value does the source give for “ARC1228: ARC1172 with one residue replaced by 2'-O methyl residue (dGdGdCdGdTdGdCdAdGdTdGdCdCdTdTdCdGdGdCdCdGdTdGdCdGdGdTdGdCdCdTdCdCdGmUdCdAdCdGdCdC[invdT]; aptamer)” here?
The value was 43%.

What about the Kd of the same substance?
The Kd was 2 nM.

For “ARC1229: ARC1172 with one residue replaced by 2'-O methyl residue (dGdGdCdGdTdGdCdAdGdTdGdCdCdTdTdCdGdGdCdCdGdTdGdCdGdGdTdGdCdCdTdCdCdGdTmCdAdCdGdCdC[invdT]; aptamer)”, which “% binding @ 100 nM vWF” value is on record?
The value was 37%.

And the Kd?
Its Kd is 5 nM.

“ARC1230: ARC1172 with one residue replaced by 2'-O methyl residue (dGdGdCdGdTdGdCdAdGdTdGdCdCdTdTdCdGdGdCdCdGdTdGdCdGdGdTdGdCdCdTdCdCdGdTdCmAdCdGdCdC[invdT]; aptamer)” was tested. Which “% binding @ 100 nM vWF” value did it give?
Its value is 46%.

And the Kd?
Its Kd is 3 nM.

What does the source list for “ARC1231: ARC1172 with one residue replaced by 2'-O methyl residue (dGdGdCdGdTdGdCdAdGdTdGdCdCdTdTdCdGdGdCdCdGdTdGdCdGdGdTdGdCdCdTdCdCdGdTdCdAmCdGdCdC[invdT]; aptamer)”?
% binding @ 100 nM vWF: 50%; Kd: 1 nM

For “ARC1232: ARC1172 with one residue replaced by 2'-O methyl residue (dGdGdCdGdTdGdCdAdGdTdGdCdCdTdTdCdGdGdCdCdGdTdGdCdGdGdTdGdCdCdTdCdCdGdTdCdAdCmGdCdC[invdT]; aptamer)”, which “% binding @ 100 nM vWF” value is on record?
The value was 51%.

What about the Kd of the same substance?
The Kd was 1 nM.

Which results are given for “ARC1233: ARC1172 with one residue replaced by 2'-O methyl residue (dGdGdCdGdTdGdCdAdGdTdGdCdCdTdTdCdGdGdCdCdGdTdGdCdGdGdTdGdCdCdTdCdCdGdTdCdAdCdGmCdC[invdT]; aptamer)”?
% binding @ 100 nM vWF: 39%; Kd: 2 nM

How did the “% binding @ 100 nM vWF” value turn out when “ARC1234: ARC1172 with one residue replaced by 2'-O methyl residue (dGdGdCdGdTdGdCdAdGdTdGdCdCdTdTdCdGdGdCdCdGdTdGdCdGdGdTdGdCdCdTdCdCdGdTdCdAdCdGdCmC[invdT]; aptamer)” was run?
The value was 42%.

And the Kd?
The Kd was 2 nM.

Which “% binding @ 100 nM vWF” value does the source give for “ARC1235: ARC1172 with composite 2'-O methyl replacements in the stem regions (mGmGdCmGdTmGdCdAdGdTdGdCdCdTdTdCdGdGdCdCdGdTdGdCdGdGdTdGdCdCdTdCdCdGdTdCmAdCmGdCdC[invdT]; aptamer)” here?
Its value is 23%.

What about the Kd of the same substance?
Its Kd is 13 nM.

How did the “% binding @ 100 nM vWF” value turn out when “ARC1236: ARC1172 with composite 2'-O methyl replacements in the stem regions (dGdGmCdGmUdGdCdAdGdTdGdCdCdTdTdCdGdGdCdCdGdTdGdCdGdGdTdGdCdCdTdCdCdGdTmCdAmCdGmCmC[invdT]; aptamer)” was run?
Its value is 32%.

What about the Kd of the same substance?
Its Kd is 3 nM.

With “ARC1237: ARC1172 with composite 2'-O methyl replacements in the stem regions (mGmGmCmGmUmGdCdAdGdTdGdCdCdTdTdCdGdGdCdCdGdTdGdCdGdGdTdGdCdCdTdCdCdGdTmCmAmCmGmCmC[invdT]; aptamer)” as the substance, how does the “% binding @ 100 nM vWF” value read?
The value was 9%.

What about the Kd of the same substance?
Its Kd is 41 nM.
